These results are taken from article PMC6102549, “Synthesis and Evaluation of C15 Triene Urushiol Derivatives as Potential Anticancer Agents and HDAC2 Inhibitor” (Molecules : A Journal of Synthetic Chemistry and Natural …, 2018).

A word on the IC50: it is the concentration that inhibits the measured activity by half. The low end stands for greater potency, the high end for weaker potency.

Experiment [1] concerns LO2 cells. Description: MTT assay, toxic effect on normal liver cells LO2. The conditions noted are these: in vitro. In kind it is cell-based. Here is the method: (§1) As shown in Figure 1 and Table 1, compounds 1–16 were evaluated for their inhibitory effects on the proliferation of HepG2 and LO2 cells by MTT assay. […] It provided the experimental basis for the subsequent synthesis of attenuating and improving urushiol derivatives.
(§2) Detection of cell proliferation by MTT
(§3) MTT assay was used to determine the inhibitory effect of the sample on the proliferation of HepG2 cells. The tumor cells of logarithmic growth stage were inoculated with 3.5 * 103 / well in 96 well culture plate. 0.2 ml/pore system was cultured for 72 h with different concentrations of samples. Then 20μL(final concentration 0.5 mg / mL) of MTT were added to each pore for 4 h. The supernatant was carefully adsorbed, DMSO 0.15 mL was added to each pore, and oscillatory mixing was carried out. The absorbance (A) value at 490 nm wavelength was measured by enzyme labeling instrument. The inhibition rate of cell proliferation was calculated as follows: [(A value of negative control group-A value of blank group)-(A value of experimental group A value of blank group)] / (negative pair group A-A value of blank group) × 100.Statistical method. The statistical analysis was carried out by SPSS 17.0 statistical software. The measured data were described by x ±s, and the mean of the two samples was compared with t test (P < 0. 05).
(§4) Materials and methods: Main reagents and instruments […]
(§5) Full-range rainbow […]
(§6) The HepG2 cells were cultured in a saturated humidity incubator with 90% […]
(§7) Jiangsu Kaiji Biotechnology Co., Ltd. Main reagents and consumables Cell culture bottle […]
(§8) Cell proliferation measured by MTT
(§9) 1) the cells were digested and counted, the cell suspension was prepared by 3 x 10^4 /ml, and 100 micron L cell suspension was added to each hole in the 96 hole cell culture plate.
(§10) 2) 96 hole cell culture plate was placed in 37, 5%, CO2 culture box for 24 hours.
(§11) 3) use the medium to dilute the drug to the desired working fluid concentration, add 100 micron l per hole to the corresponding drug medium, and establish a negative control group and a positive control group (paclitaxel, 20ug/ml).
(§12) 4) 96 hole cell culture plate was placed at 37 ℃ and 5% CO2 incubator for 72 hours.
(§13) 5) 96 hole board for MTT staining, lambda =490nm, OD value determination; a. 20 μL MTT (5mg/ml) per hole was added to the culture box for 4 hours. b. discarding the supernatant, adding 150 μL DMSO for each hole, and gently mixing the […]
(§14) c. lambda =490nm, ELISA od readout per hole, the inhibition rate was calculated.
(§15) 6) calculate the inhibition rate of each group.The inhibition rate (%) = (negative control group OD value of experimental group / OD) negative control group OD x 100% […]
(§16) 7 check the machine and record the red fluorescence at the excitation wavelength of 488nm.
(§17) Detection of apoptosis by Annexin-V FITC/PI double staining
(§18) (1) inoculate the logarithmic growth cells into the six-hole plate. The next day, after the cells are adhered to the wall, according to the group . The culture medium containing medicine was added and the negative control group was set up at the same time
(§19) (2) after 72 hours of treatment, the cells were digested with 0.25% trypsin (excluding […]
(§20) (3) 5 × 10 ~ 5 cells were collected by PBS washing cells twice (centrifugation 2000rpm for 5
For orientation: Tetrazolium assays rely on reduction of a dye to a coloured formazan, in cell work by metabolically active cells.

For experiment [2], the system named is HepG2 cells. The experiment can be described thus: MTT assay, inhibition of proliferation of HepG2 cells. As to conditions: for IC50: in vitro, 72 h. In kind it is cell-based, human. The procedure:
as §1, §2, §3, §4, §5, §6, §7, §8, §9, §10, §11, §12, §13, §14, §15, §16, §17, §18, §19, §20

For `C/C=C\C=C\C/C=C\CCCCCCCc1ccc2c(C)cc(=O)oc2c1OB(O)c1ccnc(F)c1` [Compound 16], the IC50 in experiment [1] (Homo sapiens, L02, 72 h) was more than 200 µM; in experiment [2] (Homo sapiens, HepG2, 72 h) it was 151 µM.

On to `C/C=C\C=C\C/C=C\CCCCCCCc1cccc2c1OB(C(=O)C(F)(F)C(F)(F)F)O2` [Compound 2], for which the IC50 in experiment [1] (Homo sapiens, L02, 72 h) is more than 200 µM; in experiment [2] (Homo sapiens, HepG2, 72 h), 198 µM.

Regarding `C/C=C\C=C\C/C=C\CCCCCCCc1cccc2c1OB(c1ccncc1)O2` [Compound 5], the half-maximal inhibitory concentration (IC50) was more than 200 µM in experiment [1] (Homo sapiens, L02, 72 h) and 180 µM in experiment [2] (Homo sapiens, HepG2, 72 h).

For `C/C=C\C=C\C/C=C\CCCCCCCc1cccc(O)c1NS(C)(=O)=O` [Compound 9], the IC50 in experiment [1] (Homo sapiens, L02, 72 h) was found to be 121 µM; in experiment [2] (Homo sapiens, HepG2, 72 h), 15 µM. For the same compound, the “inhibitory activity on HepG2 cells proliferation (in words)” value in experiment [2] was “strong”.

As to `C#CCOc1c(O)cccc1CCCCCCC/C=C\C/C=C/C=C\C` [Compound 3], the IC50 in experiment [1] (Homo sapiens, L02, 72 h) was more than 200 µM; in experiment [2] (Homo sapiens, HepG2, 72 h), more than 200 µM.

Turning to `C/C=C\C=C\C/C=C\CCCCCCCc1ccc2c(C)cc(=O)oc2c1OB(O)c1ccccc1` [Compound 14], the IC50 in experiment [1] (Homo sapiens, L02, 72 h) is more than 200 µM; in experiment [2] (Homo sapiens, HepG2, 72 h), 78.7 µM.

Regarding `C/C=C\C=C\C/C=C\CCCCCCCc1ccc2c(C)cc(=O)oc2c1O` [Compound 10, 8-hydroxy-4-methyl-7-((8Z,11E,13Z)-pentadeca-8,11,13-trien-1-yl)-2H-chro men-2-one], the IC50 was 180 µM in experiment [1] (Homo sapiens, L02, 72 h); 198 µM in experiment [1] (72 h); approximately 28 µM in experiment [2] (Homo sapiens, HepG2, 72 h); 28.8 µM in experiment [2].

`C/C=C\C=C\C/C=C\CCCCCCCc1ccc2c(C)cc(=O)oc2c1OB(O)c1ccncc1` [Compound 15]: the IC50 in experiment [1] (Homo sapiens, L02, 72 h) is more than 200 µM; in experiment [2] (Homo sapiens, HepG2, 72 h), 67 µM.

Turning to `C/C=C\C=C\C/C=C\CCCCCCCc1cccc2c1OB(c1ccccc1)O2` [Compound 4], the IC50 in experiment [1] (Homo sapiens, L02, 72 h) was 181 µM. Besides, in experiment [2], the “inhibitory activity on HepG2 cells proliferation (in words)” value is recorded as “strong” and the IC50 was 15.3 µM.

On to `C/C=C\C=C\C/C=C\CCCCCCCc1cccc2c1OB(c1ccnc(F)c1)O2` [Compound 6], for which the concentration for half-maximal inhibition (IC50) in experiment [1] (Homo sapiens, L02, 72 h) is more than 200 µM; in experiment [2] (Homo sapiens, HepG2, 72 h), more than 200 µM.

`C/C=C\C=C\C/C=C\CCCCCCCc1cccc2c1OC(C)(C(C)Br)O2` (centres unmarked) [Compound 7]: the IC50 was more than 200 µM in experiment [1] (Homo sapiens, L02, 72 h) and 89.7 µM in experiment [2] (Homo sapiens, HepG2, 72 h).
